Results: PMC5358917, “Mechanism of H2S Oxidation by the Dissimilatory Perchlorate-Reducing Microorganism Azospira suillum PS” (mBio, 2017)

Assays:
[1] = target: T1, PcrAB (perchlorate reductase) (Azospira oryzae, UniProt G8QM55); assay: steady-state turnover, ion chromatography of perchlorate and Cline assay of sulfide; type: biochemical; details: H2S as electron donor; 0.2 uM PcrAB; anaerobic
T1 construct: gene Dsui_0149; native PcrAB complex purified anoxically from wild-type PS cells, three-column protocol; periplasmic enzyme; with Perchlorate reductase subunit beta
T1 sequence (G8QM55 29-927): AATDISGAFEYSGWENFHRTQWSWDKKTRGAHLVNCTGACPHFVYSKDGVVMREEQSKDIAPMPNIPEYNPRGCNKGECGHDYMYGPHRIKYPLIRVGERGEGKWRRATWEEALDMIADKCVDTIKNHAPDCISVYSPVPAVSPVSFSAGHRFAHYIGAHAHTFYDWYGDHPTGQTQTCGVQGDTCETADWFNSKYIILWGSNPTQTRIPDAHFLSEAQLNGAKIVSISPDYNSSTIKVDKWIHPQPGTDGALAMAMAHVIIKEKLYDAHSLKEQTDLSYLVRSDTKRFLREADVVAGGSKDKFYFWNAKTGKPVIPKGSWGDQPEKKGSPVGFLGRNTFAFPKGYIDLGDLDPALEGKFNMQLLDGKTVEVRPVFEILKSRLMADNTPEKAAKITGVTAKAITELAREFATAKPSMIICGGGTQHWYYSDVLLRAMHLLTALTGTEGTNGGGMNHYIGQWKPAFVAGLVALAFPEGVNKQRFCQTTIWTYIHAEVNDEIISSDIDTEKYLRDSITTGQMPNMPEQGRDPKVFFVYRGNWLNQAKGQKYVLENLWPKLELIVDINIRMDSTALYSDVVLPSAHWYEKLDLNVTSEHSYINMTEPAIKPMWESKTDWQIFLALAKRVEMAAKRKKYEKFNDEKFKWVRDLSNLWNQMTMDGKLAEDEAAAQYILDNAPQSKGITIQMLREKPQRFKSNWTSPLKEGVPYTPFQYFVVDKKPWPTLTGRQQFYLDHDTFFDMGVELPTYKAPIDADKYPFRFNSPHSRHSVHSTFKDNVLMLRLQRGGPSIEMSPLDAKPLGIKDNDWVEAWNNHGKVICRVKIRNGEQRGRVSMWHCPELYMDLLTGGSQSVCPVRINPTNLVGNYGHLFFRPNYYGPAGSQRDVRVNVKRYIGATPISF
T1 sequence (G8QM54 1-333 partner): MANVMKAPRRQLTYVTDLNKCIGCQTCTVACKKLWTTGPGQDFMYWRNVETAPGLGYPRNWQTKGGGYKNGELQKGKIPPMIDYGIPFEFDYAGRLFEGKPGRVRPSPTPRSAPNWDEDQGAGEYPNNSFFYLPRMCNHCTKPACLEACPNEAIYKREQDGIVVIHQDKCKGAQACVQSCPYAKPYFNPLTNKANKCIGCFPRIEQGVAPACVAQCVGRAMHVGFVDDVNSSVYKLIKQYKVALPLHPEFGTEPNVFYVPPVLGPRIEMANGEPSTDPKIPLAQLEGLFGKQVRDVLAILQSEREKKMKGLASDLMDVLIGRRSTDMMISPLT

[2] = target: T1, PcrAB (perchlorate reductase); assay: steady-state turnover, Cline assay of sulfide; type: biochemical; details: H2S as electron donor; 0.2 uM PcrAB; anaerobic

Row | SMILES | steady-state turnover, ion chromatography of perchlorate and Cline assay of sulf [1] | steady-state turnover, Cline assay of sulfide [2]
1 | [O-][Cl+3]([O-])([O-])O [perchlorate] | Our results indicated that PcrAB independently mediated PSOX | 
2 | O=[N+]([O-])O [nitrate] |  | purified PcrAB also mediated H2S oxidation coupled to nitrate reduction
